Results taken from patent publication US20170190671A1, “BIS(ARYL)CATECHOL DERIVATIVES AS HERBICIDES” (E I DU PONT DE NEMOURS AND COMPANY, priority 2014, published 2017).

How the values were obtained:
kochia (Kochia scoparia) = assay: Test C postemergence; assay type: in vivo; settings: Bassia scoparia, post-emergence, Postemergence, scale 0 to 100, read-out: Plant response rating, Kochia
How it was run: (§1)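 Visual ratings were made 13-15 days after treatment in the greenhouse, scored 0-100 against controls, where 100 means complete control. Treatments used a surfactant-containing non-phytotoxic solvent formulation, applied preemergence to seeds in loam-sand soil or postemergence to 2-18 cm plants (1-4 leaves) in peat-based medium.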

[1] = test system: winter wheat (Triticum aestivum); assay: Test C postemergence; assay type: in vivo; settings: Triticum aestivum, post-emergence, 336 h, Postemergence, scale 0 to 100, read-out: Plant response rating, Wheat
How it was run: as §1

[2] = test system: galium (catchweed bedstraw, Galium aparine); assay: Test C postemergence; assay type: in vivo; settings: Galium, post-emergence, 336 h, Postemergence, scale 0 to 100, read-out: Plant response rating, Galium
How it was run: as §1

[3] = test system: velvetleaf (Abutilon theophrasti); assay: Test C postemergence; assay type: in vivo; settings: Abutilon theophrasti, post-emergence, Postemergence, scale 0 to 100, read-out: Plant response rating, Velvetleaf
How it was run: as §1

[4] = test system: morningglory (Ipomoea coccinea); assay: Test C postemergence; assay type: in vivo; settings: Ipomoea, post-emergence, 336 h, Postemergence, scale 0 to 100, read-out: Plant response rating, Morningglory
How it was run: as §1

[5] = test system: large (Lg) crabgrass (Digitaria sanguinalis); assay: Test C postemergence; assay type: in vivo; settings: Digitaria sanguinalis, post-emergence, 336 h, Postemergence, scale 0 to 100, read-out: Plant response rating, Crabgrass, Large
How it was run: as §1

[6] = test system: pigweed (Amaranthus retroflexus); assay: Test C preemergence; assay type: in vivo; settings: Amaranthus retroflexus, pre-emergence, 336 h, scale 0 to 100, read-out: Plant response rating, Pigweed
How it was run: as §1

[7] = test system: giant foxtail (Setaria faberii); assay: Test C preemergence; assay type: in vivo; settings: Setaria faberi, pre-emergence, 336 h, scale 0 to 100, read-out: Plant response rating, Foxtail, Giant
How it was run: as §1

[8] = test system: lambsquarters (Chenopodium album); assay: Test C preemergence; assay type: in vivo; settings: Chenopodium album, pre-emergence, 336 h, scale 0 to 100, read-out: Plant response rating, Lambsquarters
How it was run: as §1

[9] = test system: winter wheat (Triticum aestivum); assay: Test C preemergence; assay type: in vivo; settings: Triticum aestivum, pre-emergence, 336 h, scale 0 to 100, read-out: Plant response rating, Wheat
How it was run: as §1

soybean (Glycine max) = assay: Test C preemergence; assay type: in vivo; settings: Glycine max, pre-emergence, scale 0 to 100, read-out: Plant response rating, Soybean
How it was run: as §1

corn (Zea mays) = assay: Test C preemergence; assay type: in vivo; settings: Zea mays, pre-emergence, 336 h, scale 0 to 100
How it was run: as §1

[10] = test system: oilseed rape (Brassica napus); assay: Test C preemergence; assay type: in vivo; settings: Brassica napus, pre-emergence, scale 0 to 100, read-out: Plant response rating, Oilseed Rape
How it was run: as §1

[11] = test system: johnsongrass (Sorghum halepense); assay: Test C preemergence; assay type: in vivo; settings: Sorghum halepense, pre-emergence, 336 h, scale 0 to 100, read-out: Plant response rating, Johnsongrass
How it was run: as §1

[12] = test system: yellow nutsedge (Cyperus esculentus); assay: Test C preemergence; assay type: in vivo; settings: Cyperus, pre-emergence, 336 h, scale 0 to 100, read-out: Plant response rating, Nutsedge, Yellow
How it was run: as §1

[13] = test system: galium (catchweed bedstraw, Galium aparine); assay: Test C preemergence; assay type: in vivo; settings: Galium, pre-emergence, 336 h, scale 0 to 100, read-out: Plant response rating, Galium
How it was run: as §1

[14] = test system: velvetleaf (Abutilon theophrasti); assay: Test C preemergence; assay type: in vivo; settings: Abutilon theophrasti, pre-emergence, scale 0 to 100, read-out: Plant response rating, Velvetleaf
How it was run: as §1

[15] = test system: blackgrass (Alopecurus myosuroides); assay: Test C preemergence; assay type: in vivo; settings: Alopecurus myosuroides, pre-emergence, 336 h, scale 0 to 100, read-out: Plant response rating, Blackgrass
How it was run: as §1

[16] = test system: barnyardgrass (Echinochloa crus-galli); assay: Test C preemergence; assay type: in vivo; settings: Echinochloa crus-galli, pre-emergence, read-out: Plant response rating, Barnyardgrass
How it was run: as §1

[17] = test system: morningglory (Ipomoea coccinea); assay: Test C preemergence; assay type: in vivo; settings: Ipomoea, pre-emergence, 336 h, scale 0 to 100, read-out: Plant response rating, Morningglory
How it was run: as §1

[18] = test system: large (Lg) crabgrass (Digitaria sanguinalis); assay: Test C preemergence; assay type: in vivo; settings: Digitaria sanguinalis, pre-emergence, 336 h, scale 0 to 100, read-out: Plant response rating, Crabgrass, Large
How it was run: as §1

[19] = test system: ragweed (common ragweed, Ambrosia elatior); assay: Test C preemergence; assay type: in vivo; settings: Ambrosia artemisiifolia, pre-emergence, 336 h, scale 0 to 100, read-out: Plant response rating, Ragweed
How it was run: as §1

SMILES: Fc1ccc(F)c(Oc2ncc(Cl)cn2)c1Oc1ncc(Cl)cn1 [Compound 34, 2,2′-[(3,6-difluoro-1,2-phenylene)bis(oxy)]bis[5-chloropyrimidine]]
- melting point: 158 to 161 °C
- pest or weed control at 16 g/ha (kochia (Kochia scoparia); 16 g ai/ha): 60%
- pest or weed control at 31 g/ha (kochia (Kochia scoparia); 31 g ai/ha): 60%
- pest or weed control at 62 g/ha (kochia (Kochia scoparia); 62 g ai/ha): 90%
- pest or weed control at 125 g/ha (kochia (Kochia scoparia); 125 g ai/ha): 90%
- plant injury at 31 g/ha ([1]; 31 g ai/ha): 0%
- plant injury at 62 g/ha ([1]; 62 g ai/ha): 0%
- plant injury at 125 g/ha ([1]; 125 g ai/ha): 0%
- pest or weed control at 16 g/ha ([2]; 16 g ai/ha): 80%
- pest or weed control at 31 g/ha ([2]; 31 g ai/ha): 80%
- pest or weed control at 62 g/ha ([2]; 62 g ai/ha): 85%
- pest or weed control at 125 g/ha ([2]; 125 g ai/ha): 85%
- pest or weed control at 31 g/ha ([3]; 31 g ai/ha): 60%
- pest or weed control at 62 g/ha ([3]; 62 g ai/ha): 60%
- pest or weed control at 125 g/ha ([3]; 125 g ai/ha): 65%
- pest or weed control at 31 g/ha ([4]; 31 g ai/ha): 95%
- pest or weed control at 62 g/ha ([4]; 62 g ai/ha): 90%
- pest or weed control at 125 g/ha ([4]; 125 g ai/ha): 95%
- pest or weed control at 16 g/ha ([5]; 16 g ai/ha): 0%
- pest or weed control at 31 g/ha ([5]; 31 g ai/ha): 0%
- pest or weed control at 62 g/ha ([5]; 62 g ai/ha): 5%
- pest or weed control at 125 g/ha ([5]; 125 g ai/ha): 5%
- pest or weed control at 31 g/ha ([6]; 31 g ai/ha, preemergence): 100%
- pest or weed control at 62 g/ha ([6]; 62 g ai/ha, preemergence): 100%
- pest or weed control at 125 g/ha ([6]; 125 g ai/ha, preemergence): 100%
- pest or weed control at 16 g/ha ([6]; Preemergence, 16 g ai/ha): 100%
- pest or weed control at 31 g/ha ([7]; 31 g ai/ha, preemergence): 98%
- pest or weed control at 62 g/ha ([7]; 62 g ai/ha, preemergence): 100%
- pest or weed control at 125 g/ha ([7]; 125 g ai/ha, preemergence): 100%
- pest or weed control at 16 g/ha ([7]; Preemergence, 16 g ai/ha): 70%
- pest or weed control at 31 g/ha ([8]; 31 g ai/ha, preemergence): 90%
- pest or weed control at 62 g/ha ([8]; 62 g ai/ha, preemergence): 100%
- pest or weed control at 125 g/ha ([8]; 125 g ai/ha, preemergence): 98%
- pest or weed control at 16 g/ha ([8]; Preemergence, 16 g ai/ha): 80%
- plant injury at 31 g/ha ([9]; 31 g ai/ha, preemergence): 0%
- plant injury at 62 g/ha ([9]; 62 g ai/ha, preemergence): 15%
- plant injury at 125 g/ha ([9]; 125 g ai/ha, preemergence): 10%
- plant injury at 16 g/ha ([9]; Preemergence, 16 g ai/ha): 0%
- plant injury at 31 g/ha (soybean (Glycine max); 31 g ai/ha, preemergence): 20%
- plant injury at 62 g/ha (soybean (Glycine max); 62 g ai/ha, preemergence): 45%
- plant injury at 125 g/ha (soybean (Glycine max); 125 g ai/ha, preemergence): 55%
- plant injury at 16 g/ha (soybean (Glycine max); Preemergence, 16 g ai/ha): 5%
- Corn plant response rating (crop injury, 0 = no effect, 100 = complete kill) at 31 g/ha (corn (Zea mays); 31 g ai/ha, preemergence): 5%
- Corn plant response rating (crop injury, 0 = no effect, 100 = complete kill) at 62 g/ha (corn (Zea mays); 62 g ai/ha, preemergence): 20%
- Corn plant response rating (crop injury, 0 = no effect, 100 = complete kill) at 125 g/ha (corn (Zea mays); 125 g ai/ha, preemergence): 40%
- Corn plant response rating (crop injury, 0 = no effect, 100 = complete kill) at 16 g/ha (corn (Zea mays); Preemergence, 16 g ai/ha): 0%
- plant injury at 31 g/ha ([10]; 31 g ai/ha, preemergence): 90%
- plant injury at 62 g/ha ([10]; 62 g ai/ha, preemergence): 90%
- plant injury at 125 g/ha ([10]; 125 g ai/ha, preemergence): 90%
- plant injury at 16 g/ha ([10]; Preemergence, 16 g ai/ha): 30%
- pest or weed control at 31 g/ha ([11]; 31 g ai/ha, preemergence): 55%
- pest or weed control at 62 g/ha ([11]; 62 g ai/ha, preemergence): 75%
- pest or weed control at 125 g/ha ([11]; 125 g ai/ha, preemergence): 98%
- pest or weed control at 16 g/ha ([11]; Preemergence, 16 g ai/ha): 50%
- pest or weed control at 31 g/ha ([12]; 31 g ai/ha, preemergence): 0%
- pest or weed control at 62 g/ha ([12]; 62 g ai/ha, preemergence): 0%
- pest or weed control at 125 g/ha ([12]; 125 g ai/ha, preemergence): 5%
- pest or weed control at 16 g/ha ([12]; Preemergence, 16 g ai/ha): 0%
- pest or weed control at 31 g/ha ([13]; 31 g ai/ha, preemergence): 95%
- pest or weed control at 62 g/ha ([13]; 62 g ai/ha, preemergence): 95%
- pest or weed control at 125 g/ha ([13]; 125 g ai/ha, preemergence): 98%
- pest or weed control at 16 g/ha ([13]; Preemergence, 16 g ai/ha): 90%
- pest or weed control at 31 g/ha ([14]; 31 g ai/ha, preemergence): 45%
- pest or weed control at 62 g/ha ([14]; 62 g ai/ha, preemergence): 70%
- pest or weed control at 125 g/ha ([14]; 125 g ai/ha, preemergence): 80%
- pest or weed control at 16 g/ha ([14]; Preemergence, 16 g ai/ha): 35%
- pest or weed control at 31 g/ha ([15]; 31 g ai/ha, preemergence): 0%
- pest or weed control at 62 g/ha ([15]; 62 g ai/ha, preemergence): 60%
- pest or weed control at 125 g/ha ([15]; 125 g ai/ha, preemergence): 70%
- pest or weed control at 16 g/ha ([15]; Preemergence, 16 g ai/ha): 0%
- pest or weed control at 31 g/ha ([16]; 31 g ai/ha, preemergence, scale 0 to 100): 55%
- pest or weed control at 62 g/ha ([16]; 62 g ai/ha, preemergence, scale 0 to 100): 85%
- pest or weed control at 125 g/ha ([16]; 125 g ai/ha, preemergence, scale 0 to 100): 98%
- pest or weed control at 16 g/ha ([16]; Preemergence, 16 g ai/ha, scale 0 to 100 (0 no effect, 100 complete control)): 20%
- pest or weed control at 31 g/ha ([17]; 31 g ai/ha, preemergence): 20%
- pest or weed control at 62 g/ha ([17]; 62 g ai/ha, preemergence): 60%
- pest or weed control at 125 g/ha ([17]; 125 g ai/ha, preemergence): 90%
- pest or weed control at 16 g/ha ([17]; Preemergence, 16 g ai/ha): 0%
- pest or weed control at 31 g/ha ([18]; 31 g ai/ha, preemergence): 85%
- pest or weed control at 62 g/ha ([18]; 62 g ai/ha, preemergence): 98%
- pest or weed control at 125 g/ha ([18]; 125 g ai/ha, preemergence): 100%
- pest or weed control at 16 g/ha ([18]; Preemergence, 16 g ai/ha): 80%
- pest or weed control at 31 g/ha ([19]; 31 g ai/ha, preemergence): 0%
- pest or weed control at 62 g/ha ([19]; 62 g ai/ha, preemergence): 25%
- pest or weed control at 125 g/ha ([19]; 125 g ai/ha, preemergence): 40%
- pest or weed control at 16 g/ha ([19]; Preemergence, 16 g ai/ha): 0%
